Our source for the IC50 values is patent US5268468A, “N-nitrosophenoxybenzenepropanamine and N-1-chloroethyl carbamate intermediates” (Hoechst-Roussel Pharmaceuticals Incorporated, priority 1993, dated 1993).

This experiment deals with serotonin uptake in rat whole brain and hypothalamic synaptosomes. The experiment in a line: [3H]-Serotonin Uptake in Rat Whole Brain and Hypothalamic Synaptosomes. The class given is biochemical, rat (male CR Wistar). Conditions: rat whole brain or hypothalamic synaptosomes; 50 nM [3H]-5-hydroxytryptamine; 37° C., 5 minutes; pH 7.4; log-probit analysis; read-out: Inhibition of Serotonin Uptake (IC50).

Structures can show the parent of a compound that is named as a salt.

Method: [^3 H]-Serotonin Uptake in Rat Whole Brain
A. Animals: Male CR Wistar rats (100-125 g).
1. Krebs-Henseleit Bicarbonate Buffer, pH 7.4 (KHBB):
Make a 1 liter batch, containing the following salts.
Potassium chloride 0.35 4.7
Calcium chloride 0.14 1.3
Aerate for 60 min. with 95% oxygen/5% carbon dioxide,
2. 0.32 M Sucrose: 21.9 g of sucrose, bring to 200 ml.
3. Serotonin creatinine sulfate 0.1 mM stock solution is
made up in 0.01 N hydrochloric acid. This is used to
dilute the specific activity of radiolabeled
[H^3 ]-5-hydroxytryptamine (serotonin).
4. 5-[1,2-^3 H(N)]-Hydroxytryptamine creatinine sulfate
(Serotonin), specific activity 20-30 Ci/mmol is used.
The final desired concentration of
[H^3 ]-5-hydroxytryptamine in the assay is 50 nM. The
dilution factor is 0.8. Therefore, the KHBB is made up to
contain 62.5 nM [H^3 ]-5-hydroxy-tryptamine.
A) 56.1 μl of 0.1 mM 5-hydroxytryptamine
*B) 0.64 nmole of 5-hydroxytryptamine
5. For most assays, a 1 mM stock solution of the test com-
pound is made up in suitable solvent and serially diluted
such that the final concentration in the assay ranges from
2 × 10^-8 to 2 × 10^-5 M. Seven concentrations
for each assay. Higher or lower concentrations may be
used depending on the potency of the compound.
Male Wistar rats are decapitated and the brain rapidly
removed. […]
scintillation vials, and counted in 10 ml of Liquiscint […]

A word on the IC50: it is the concentration at which inhibition is half-maximal. With `CN(N)CCC(Oc1ccc(C(F)(F)F)cc1)c1ccccc1` (stereo not shown) [2-Methyl-2-[3-phenyl-3-[(4-trifluoromethyl)phenoxy]propyl]hydrazine maleate], the half-inhibitory concentration (IC50) was 1230 nM.
